Here are results for 33 compounds from patent US8637550B2, “Heteroaryl diamide compounds useful as MMP-13 inhibitors” (Boehringer Ingelheim International GmbH, priority 2008, dated 2014).

The structures appear in SMILES notation.

This assay deals with MMP-13 (Homo sapiens, UniProt P45452). The assay is described as follows: EnzoLyte 520 Generic MMP Assay Kit, 5-FAM/QXL520 FRET peptide substrate. Format: biochemical. The source says:
The EnzoLyte™ 520 Generic MMP Assay Kit (AnaSpec Inc.) can detect the activity of several MMPs including MMP-1, 2, 3, 7, 8, 9, 13, and 14. This kit uses a 5-FAM/QXL™520 fluorescence resonance energy transfer (FRET) peptide as an MMP substrate.
In the case of `CNC(=O)[C@@H](NC(=O)c1ccc(-c2ccc(-c3cccnc3)cn2)o1)C(C)C` [5-[3,3′]Bipyridinyl-6-yl-furan-2-carboxylic acid ((S)-2-methyl-1-methylcarbamoyl-propyl)-amide], the IC50 came to 140 nM.

`CNC(=O)[C@@H](NC(=O)c1ccc(-c2ccc(-c3ccncc3)cn2)o1)C(C)C` [5-[3,4′]Bipyridinyl-6-yl-furan-2-carboxylic acid ((S)-2-methyl-1-methylcarbamoyl-propyl)-amide] yielded an IC50 of 62 nM.

On to `CNC(=O)[C@@H](NC(=O)c1ccc(-c2ccc(-c3ccncc3)cn2)o1)C1CCCCC1` [5-[3,4′]Bipyridinyl-6-yl-furan-2-carboxylic acid ((S)-cyclohexyl-methylcarbamoyl-methyl)-amide], for which the half-maximal inhibitory concentration (IC50) was found to be 23 nM. Compared with the last compound, the IC50 is about 2.7-fold lower.

`CNC(=O)[C@@H](NC(=O)c1ccc(-c2cccc(CN)c2)o1)C1CCOCC1` [5-[3-(Aminomethyl)phenyl]-N-[(1S)-2-(methylamino)-2-oxo-1-(tetrahydro-2H-pyran-4-yl)ethyl]-2-furamide]: the IC50 was found to be 415 nM.

In turn, `CNC(=O)[C@@H](NC(=O)c1ccc(-c2cccc(CNC(=O)c3ccccc3)c2)o1)C(C)C` [5-[3-(Benzoylamino-methyl)-phenyl]-furan-2-carboxylic acid ((S)-2-methyl-1-methylcarbamoyl-propyl)-amide] displayed an IC50 of 205 nM. This IC50 lies about 2-fold lower than the previous one.

Compound `CNC(=O)[C@@H](NC(=O)c1ccc(-c2ccc(OCc3cc(C)nn3C)cc2)o1)C1CCCCC1` [5-[4-(2,5-Dimethyl-2H-pyrazol-3-ylmethoxy)-phenyl]-furan-2-carboxylic acid ((S)-cyclohexyl-methylcarbamoyl-methyl)-amide] registered an IC50 of 6 nM.

The compound `CNC(=O)[C@@H](NC(=O)c1ccc(-c2ccc(OCc3[nH]cnc3C)cc2)o1)C1CCOCC1` [5-[4-(5-Methyl-3H-imidazol-4-ylmethoxy)-phenyl]-furan-2-carboxylic acid [(S)-methylcarbamoyl-(tetrahydro-pyran-4-yl)-methyl]-amide] came in with an IC50 of 27 nM.

With `CNC(=O)[C@@H](NC(=O)c1ccc(-c2ccc(OCc3cc(C)n(C)n3)cn2)o1)C(C)C` [5-[5-(1,5-Dimethyl-1H-pyrazol-3-ylmethoxy)-pyridin-2-yl]-furan-2-carboxylic acid ((S)-2-methyl-1-methylcarbamoyl-propyl)-amide], the IC50 is 80 nM.

In turn, `CNC(=O)[C@@H](NC(=O)c1ccc(-c2ccc(OCc3cc4ccccc4o3)cn2)o1)C1CCCCC1` [5-[5-(1-Benzofuran-2-ylmethoxy)pyridin-2-yl]-N-[(1S)-1-cyclohexyl-2-(methylamino)-2-oxoethyl]furan-2-carboxamide] came in with an IC50 of 6 nM.

In turn, `CNC(=O)[C@@H](NC(=O)c1ccc(-c2ccc(-c3ccc4[nH]ccc4c3)cn2)o1)C(C)C` [5-[5-(1H-Indol-5-yl)-pyridin-2-yl]-furan-2-carboxylic acid ((S)-2-methyl-1-methylcarbamoyl-propyl)-amide] gave an IC50 of 260 nM.

Regarding `CNC(=O)[C@@H](NC(=O)c1ccc(-c2ccc(-c3ccc4cc[nH]c4c3)cn2)o1)C(C)C` [5-[5-(1H-Indol-6-yl)-pyridin-2-yl]-furan-2-carboxylic acid ((S)-2-methyl-1-methylcarbamoyl-propyl)-amide], 91 nM corresponded to half-maximal inhibition (IC50).

On to `CNC(=O)[C@@H](NC(=O)c1ccc(-c2ccc(OCc3cc(C)nn3C)cn2)o1)C1CCCCC1` [5-[5-(2,5-Dimethyl-2H-pyrazol-3-ylmethoxy)-pyridin-2-yl]-furan-2-carboxylic acid ((S)-cyclohexyl-methylcarbamoyl-methyl)-amide], for which 2 nM corresponded to half-maximal inhibition (IC50).

As for `CNC(=O)[C@@H](NC(=O)c1ccc(-c2ccc(-c3cnc(N)nc3)cn2)o1)C(C)C` [5-[5-(2-Amino-pyrimidin-5-yl)-pyridin-2-yl]-furan-2-carboxylic acid ((S)-2-methyl-1-methylcarbamoyl-propyl)-amide], the IC50 was determined as 380 nM.

`CNC(=O)[C@@H](NC(=O)c1ccc(-c2ccc(-c3cc(F)cc(F)c3)cn2)o1)C(C)C` [5-[5-(3,5-Difluoro-phenyl)-pyridin-2-yl]-furan-2-carboxylic acid ((S)-2-methyl-1-methylcarbamoyl-propyl)-amide] registered an IC50 of 370 nM.

Take `CNC(=O)[C@@H](NC(=O)c1ccc(-c2ccc(-c3cccc(F)c3)cn2)o1)C(C)C` [5-[5-(3-Fluoro-phenyl)-pyridin-2-yl]-furan-2-carboxylic acid ((S)-2-methyl-1-methylcarbamoyl-propyl)-amide]: the IC50 amounted to 325 nM. This IC50 and that of the compound before are within 1.5-fold of each other.

Compound `CNC(=O)[C@@H](NC(=O)c1ccc(-c2ccc(-c3ccc(C#N)cc3)cn2)o1)C(C)C` [5-[5-(4-Cyano-phenyl)-pyridin-2-yl]-furan-2-carboxylic acid ((S)-2-methyl-1-methylcarbamoyl-propyl)-amide] returned an IC50 of 22 nM. Against the preceding compound, the IC50 is about 15-fold lower.

In turn, `CCOc1ccc(-c2ccc(-c3ccc(C(=O)N[C@H](C(=O)NC)C(C)C)o3)nc2)cc1` [5-[5-(4-Ethoxy-phenyl)-pyridin-2-yl]-furan-2-carboxylic acid ((S)-2-methyl-1-methylcarbamoyl-propyl)-amide] gave an IC50 of 47 nM.

`CNC(=O)[C@@H](NC(=O)c1ccc(-c2ccc(-c3ccc(F)cc3)cn2)o1)C(C)C` [5-[5-(4-Fluoro-phenyl)-pyridin-2-yl]-furan-2-carboxylic acid ((S)-2-methyl-1-methylcarbamoyl-propyl)-amide] came in with an IC50 of 78 nM. Compared with the last compound, the IC50 is about 1.7-fold higher.

Turning to `CNC(=O)[C@@H](NC(=O)c1ccc(-c2ccc(-c3ccc(OC(C)C)cc3)cn2)o1)C(C)C` [5-[5-(4-Isopropoxy-phenyl)-pyridin-2-yl]-furan-2-carboxylic acid ((S)-2-methyl-1-methylcarbamoyl-propyl)-amide], the IC50 turned out to be 29 nM.

`CNC(=O)[C@@H](NC(=O)c1ccc(-c2ccc(-c3ccc(C)cc3)cn2)o1)C(C)C` [5-[5-(4-Methyl-phenyl)-pyridin-2-yl]-furan-2-carboxylic acid ((S)-2-methyl-1-methylcarbamoyl-propyl)-amide]: the IC50 was determined as 180 nM.

Consider `CNC(=O)[C@@H](NC(=O)c1ccc(-c2ccc(OCc3[nH]cnc3C)cn2)o1)C1CCOCC1` [5-[5-(5-Methyl-3H-imidazol-4-ylmethoxy)-pyridin-2-yl]-furan-2-carboxylic acid [(S)-methylcarbamoyl-(tetrahydro-pyran-4-yl)-methyl]-amide], for which the IC50 came to 415 nM.

For `CCNC(=O)[C@@H](NC(=O)c1ccc(-c2ccc(OCc3ccccc3)cn2)o1)C1CCCCC1` [5-[5-(Benzyloxy)pyridin-2-yl]-N-[(1S)-1-cyclohexyl-2-(ethylamino)-2-oxoethyl]furan-2-carboxamide], the IC50 was determined as 17 nM.

Consider `CNC(=O)[C@@H](NC(=O)c1ccc(-c2ccc(OCc3ccccc3)cn2)o1)C1CCCCC1` [5-[5-(Benzyloxy)pyridin-2-yl]-N-[(1S)-1-cyclohexyl-2-(methylamino)-2-oxoethyl]furan-2-carboxamide], for which 10 nM corresponded to half-maximal inhibition (IC50).

With `CNC(=O)[C@@H](NC(=O)c1ccc(-c2ccc(OCc3ccccc3)cn2)o1)C1CCOCC1` [5-[5-(Benzyloxy)pyridin-2-yl]-N-[(1S)-2-(methylamino)-2-oxo-1-(tetrahydro-2H-pyran-4-yl)ethyl]furan-2-carboxamide], it took 3 nM to reach half-maximal inhibition (IC50).

For `CNC(=O)[C@@H](NC(=O)c1ccc(-c2cccc(CNC(=O)c3ccc(C)c(C)c3)c2)o1)C(C)C` [5-{3-[(3,4-Dimethyl-benzoylamino)-methyl]-phenyl}-furan-2-carboxylic acid ((S)-2-methyl-1-methylcarbamoyl-propyl)-amide], inhibition was half-maximal at 156 nM (IC50).

The compound `CNC(=O)[C@@H](NC(=O)c1ccc(-c2cccc(CNC(=O)c3cccc(C#N)c3)c2)o1)C(C)C` [5-{3-[(3-Cyano-benzoylamino)-methyl]-phenyl}-furan-2-carboxylic acid ((S)-2-methyl-1-methylcarbamoyl-propyl)-amide] showed a concentration for half-maximal inhibition (IC50) of 160 nM.

On to `CNC(=O)[C@@H](NC(=O)c1ccc(-c2cccc(CNC(=O)c3cccc(N(C)C)c3)c2)o1)C(C)C` [5-{3-[(3-Dimethylamino-benzoylamino)-methyl]-phenyl}-furan-2-carboxylic acid ((S)-2-methyl-1-methylcarbamoyl-propyl)-amide], for which half-maximal inhibition (IC50) required 213 nM.

On to `CNC(=O)[C@@H](NC(=O)c1ccc(-c2cccc(CNC(=O)c3cccc(C(C)C)c3)c2)o1)C(C)C` [5-{3-[(3-Isopropyl-benzoylamino)-methyl]-phenyl}-furan-2-carboxylic acid ((S)-2-methyl-1-methylcarbamoyl-propyl)-amide], for which half-maximal inhibition (IC50) was put at 160 nM.

As to `CNC(=O)[C@@H](NC(=O)c1ccc(-c2cccc(CNC(=O)c3cccc(OC)c3)c2)o1)C(C)C` [5-{3-[(3-Methoxy-benzoylamino)-methyl]-phenyl}-furan-2-carboxylic acid ((S)-2-methyl-1-methylcarbamoyl-propyl)-amide], the IC50 was found to be 163 nM.

The compound `CNC(=O)[C@@H](NC(=O)c1ccc(-c2cccc(CNC(=O)c3cccc(C)c3)c2)o1)C(C)C` [5-{3-[(3-Methyl-benzoylamino)-methyl]-phenyl}-furan-2-carboxylic acid ((S)-2-methyl-1-methylcarbamoyl-propyl)-amide] showed an IC50 of 132 nM. This IC50 and that of the compound before are within 1.5-fold of each other.

In turn, `CNC(=O)[C@@H](NC(=O)c1ccc(-c2cccc(CNC(=O)c3ccc(F)c(C(F)(F)F)c3)c2)o1)C(C)C` [5-{3-[(3-Trifluoromethyl-4-fluoro-benzoylamino)-methyl]-phenyl}-furan-2-carboxylic acid ((S)-2-methyl-1-methylcarbamoyl-propyl)-amide] gave an IC50 of 215 nM. This IC50 is about 1.6-fold higher than that of the compound before.

Regarding `CNC(=O)[C@@H](NC(=O)c1ccc(-c2cccc(CNC(=O)c3cccc(C(F)(F)F)c3)c2)o1)C(C)C` [5-{3-[(3-Trifluoromethyl-benzoylamino)-methyl]-phenyl}-furan-2-carboxylic acid ((S)-2-methyl-1-methylcarbamoyl-propyl)-amide], 49 nM corresponded to half-maximal inhibition (IC50).

`CNC(=O)[C@@H](NC(=O)c1ccc(-c2cccc(CNC(=O)c3ccc(C#N)cc3)c2)o1)C(C)C` [5-{3-[(4-Cyano-benzoylamino)-methyl]-phenyl}-furan-2-carboxylic acid ((S)-2-methyl-1-methylcarbamoyl-propyl)-amide] yielded an IC50 of 185 nM.

What is called IC50 is the midpoint of a concentration-inhibition curve. Low values mean greater potency in that assay, high ones weaker potency in that assay.
